Test results published in US9937192B2, “Combination therapy to treat mycobacterium diseases” (priority 2012, dated 2018).
Structures can show the parent of a compound that is named as a salt. Where two headings read alike, the source gives them in different places.

Assays:
[1] = Seven-Day Oral (Gavage) Toxicity and Toxicokinetics Study in Rats; assay type: in vivo, Crl:CD(SD) rats; conditions: male rats
Excerpt: Seven-Day Oral (Gavage) Toxicity and Toxicokinetics Study in Rats
Crl:CD(SD) rats were obtained from Charles River Laboratories of Stone Ridge, N.Y. The animals were laboratory bred and experimentally naïve. Rats were chosen because they are a species that is commonly used for nonclinical toxicity evaluations.
Animals received the test article or vehicle by oral gavage for 7 consecutive days and were terminated the day following completion of dosing. The first day of dosing was designated as Day 1 of the study. The animals were evaluated for changes in clinical signs, body weight, and other parameters as described below.
The vehicle and test article were administered by oral gavage once daily for 7 consecutive days at a dose volume of 10 mL/kg body weight for Group A and Groups B-D, respectively. The test article and vehicle were administered by oral gavage twice daily, approximately 8 hours apart, for 7 consecutive days at a dose volume of 10 mL/kg body weight for Group E and Group F, respectively. The actual volume administered to each animal was calculated and adjusted based on the most recent body weight of each animal.
During the treatment period, daily cageside observations were made and recorded predose and postdose (following the first dose only). The postdosing observations made during treatment occurred at the following times based on Cmax/Tmax for the two compounds from previous studies:
Prior to start of dosing, body weights were measured for randomization on Day 1. During the treatment, body weights were measured on Day 1 and Day 7. In addition, fasted body weights were measured prior to necropsy for calculation of organ/body weight ratios.
Throughout the study, food consumption was measured daily starting 3 days prior to start of dosing.
Blood samples for evaluation of hematology, coagulation, and serum chemistry parameters were collected from all animals from the retro-orbital plexus (under CO2/O2 anesthesia, for the main study animals) or jugular vein cannula (for the toxicokinetic animals) prior to necropsy. Due to residual heparin used to keep the cannulas patent for the toxicokinetic animals, coagulation samples from these rats, were not able to be analyzed. The animals were fasted overnight prior to blood collection. On the day of blood collection for clinical pathology analyses, the animals were not necropsied until after the blood was collected and the samples judged to be acceptable by the clinical pathology group.
On the 1st and 7th day of dosing, blood samples (approximately 0.5 mL/sample) were collected from the jugular vein cannula for all toxicokinetic animals at the timepoints listed below into K3EDTA-containing tubes. […] Prior to each collection, a small sample of blood (with heparin blocking solution) was removed from the cannula and discarded. A new syringe was placed on the cannula, and the protocol-required sample was taken. The syringe with the blood sample was removed, and a new syringe with saline attached to the cannula. Blood volume was replaced with an equal volume of saline and then blocking solution placed in the cannula. Each animal was returned to its cage until the next collection timepoint.
For all animals euthanized at scheduled necropsies, the kidneys, liver, and prostate gland were weighed. Following weighing, an approximate 1 gram sample of liver and kidney was weighed, transferred to Precellys 7 mL CK28 Tissue Homogenizing tubes (Cat. No. 0904-01), snap-frozen, and analyzed.
For all animals scheduled for the terminal necropsy, the kidneys, liver, and prostate were embedded in paraffin, sectioned and stained with hematoxylin and eosin for further examination by light microscopy. For Groups A, D, E, and F only, the remaining tissues listed above were embedded in paraffin, sectioned and stained with hematoxylin and eosin for further examination by light microscopy. […]

[2] = tested on: M. tuberculosis; assay: microbe, parasite or virus in culture; assay type: cell-based; conditions: Mycobacterium tuberculosis
[3] = tested on: M. avium; assay: MIC in bacterial broth culture (7H9 with ADC, visual or resazurin); assay type: cell-based; conditions: Table 31, duplicate values
[4] = tested on: M. kansasii; assay: as above; assay type: cell-based; conditions: Mycobacterium kansasii, Table 31; M. kansasii 303; duplicate values
[5] = tested on: M. tuberculosis H37Rv; assay: Minimum bactericidal concentration (MBC) assay; assay type: cell-based; conditions: for Log Reduction: vs untreated control
[6] = tested on: M. tuberculosis Erdman; assay: MBC assay, log killing reduction in CFU over a one month period of incubation (Table 35); assay type: cell-based; conditions: for Log Reduction (cfu): Compound 23A at 4×MIC
[7] = tested on: nonreplicating M. tuberculosis; assay: Low-Oxygen-Recovery Assay (LORA) MIC; assay type: cell-based; conditions: Mycobacterium tuberculosis, read-out: LORA MIC
Excerpt: MIC Determination in the Low-Oxygen-Recovery Assay (LORA) for Nonreplicating M. tuberculosis
Screening for new antimicrobial agents is routinely conducted only against actively replicating bacteria. However, it is now widely accepted that a physiological state of non-replicating persistence (NRP) is responsible for antimicrobial tolerance in many bacterial infections. In tuberculosis, the key to shortening the 6-month regimen lies in targeting this NRP subpopulation. […] Cho S H, Want S, Wan B, Hwang C H, Pauli G F, Franzblau S G; “Low-Oxygen-Recovery Assay for High-Throughput Screening of Compounds against Nonreplicating Mycobacterium tuberculosis” Antimicrob Agents Chemother. 2007 April; 51(4): 1380-1385 doi: 10.1128/AAC.00055-06.

[8] = tested on: intracellular M. tuberculosis in THP-1 cells; assay: microbe, parasite or virus in culture; assay type: cell-based; conditions: Mycobacterium tuberculosis, H37RA
[9] = tested on: intracellular M. tuberculosis in J774 cells; assay: Efficacy against intracellular M. tuberculosis (luciferase) in J774 cells; assay type: cell-based; conditions: Mycobacterium tuberculosis, J774, 120 h
[10] = tested on: Non-Replicating (NRP) M. tuberculosis H37Ra; assay: Non-replicating (NRP) M. tuberculosis H37Ra (luciferase) culture assay; assay type: cell-based; conditions: Mycobacterium tuberculosis, 336 h, read on day 14
[11] = 300 mg/kg twice a day vs controls treated twice a day

Compound: CCNC(=O)Nc1nc2cc(-c3cnc(C(C)(C)O)nc3)c(F)c([C@H]3CCCO3)c2[nH]1 [Compound 23A, methanesulfonic acid salt of 1-ethyl-3-[6-fluoro-5-[2-(1-hydroxy-1-methyl-ethyl)pyrimidin-5-yl]-7-[(2R)-tetrahydrofuran-2-yl]-1H-benzimidazol-2-yl]urea]
- AST [1, 11]: statistically higher
- mean ALT [1, 11]: statistically higher
- mean calcium ion concentration (CA) [1, 11]: statistically lower
- dose levels at which no adverse toxicity was demonstrated ([1]; 7 days oral gavage): ≤ 600 mg/kg/day
- adverse observations or effects on mean body weight ([1]; 7 days oral gavage, all dose groups): No adverse observations or effects on mean body weight
- histopathological findings ([1]; any dose regimen): No test article-related histopathological findings
- NOEL (No-Observable-Effect-Level) ([1]; once a day for 7 days orally via gavage): 100 mg/kg
- exposures for different dosage levels ([1]; toxicokinetics): dose related
- Mean food consumption ([1]; twice daily 300 mg/kg, not considered adverse): reduced
- MIC ([2]; GN9, Table 31, Mtb GN9, duplicate values, read-out: MIC): 0.03 µg/mL
- MIC ([2]; H37RA, read-out: MIC, Broth): 0.01 µg/mL
- MIC ([2]; H37RV, Table 33, M. tuberculosis strain H37Rv, read-out: MIC): 0.125 µg/mL
- MIC ([2]; Table 32, […], duplicate values, read-out: MIC): 0.125 µg/mL
- MIC ([2]; Table 33, M. tuberculosis strain AH13, read-out: MIC): 0.5 µg/mL
- MIC ([2]; Table 33, M. tuberculosis strain BW9, read-out: MIC): 0.125 µg/mL
- MIC ([2]; Table 33, M. tuberculosis strain H10460, read-out: MIC): 0.5 µg/mL
- MIC ([2]; Table 33, M. tuberculosis strain MC19062, read-out: MIC): 0.125 µg/mL
- MIC ([2]; Table 33, M. tuberculosis strain W10, read-out: MIC): 0.125 µg/mL
- MIC ([3]; Mycobacterium avium, M. avium 103, read-out: MIC): 0.12 µg/mL
- MIC ([3]; Mycobacterium avium, M. avium 3404.4, read-out: MIC): 0.23 µg/mL
- MIC ([3]; Mycobacterium avium, M. avium Far, read-out: MIC): 0.23 µg/mL
- MIC ([3]; M. avium 103): 0.23 µg/mL
- MIC [4]: 0.03 µg/mL
- Log cfu ([5]; 0.039 ug/mL): 5.36
- Log Reduction ([5]; 0.039 ug/mL): 0.77
- Log cfu ([5]; 0.078 ug/mL): 3.75
- Log Reduction ([5]; 0.078 ug/mL): 2.38
- Log cfu ([5]; 0.156 ug/mL): 1.04
- Log Reduction ([5]; 0.156 ug/mL): 5.09
- Log cfu ([5]; 0.312 ug/mL): 1.32
- Log Reduction ([5]; 0.312 ug/mL): 4.81
- Log cfu ([5]; 0.625 ug/mL): 1.04
- Log Reduction ([5]; 0.625 ug/mL): 5.09
- killing kinetics (log reduction in CFU) ([6]; 4×MIC, one month period of incubation): slow killing kinetics
- Log Reduction (cfu) ([6]; day 0 of incubation): 0 Log
- Log Reduction (cfu) ([6]; day 1 of incubation): 0.2 Log
- Log Reduction (cfu) ([6]; day 2 of incubation): 0.2 Log
- Log Reduction (cfu) ([6]; day 3 of incubation): 1.0 Log
- Log Reduction (cfu) ([6]; day 7 of incubation): 1.9 Log
- Log Reduction (cfu) ([6]; day 14 of incubation): 1.9 Log
- Log Reduction (cfu) ([6]; day 21 of incubation): 2.2 Log
- Log Reduction (cfu) ([6]; day 28 of incubation): 3.0 Log
- MIC [7]: 0.25 µg/mL
- IC50 ([8]; THP-1, 120 h, read-out: Mtb H37Ra in THP1 Cells (IC50)): 0.03 µg/mL
- MIC ([8]; read-out: MIC, Macrophage Cells): 0.03 µg/mL
- IC50 ([9]; ERDMAN, read-out: Mtb Erdman in J774 Cells (IC50)): < 0.17 µg/mL
- IC50 ([9]; H37RV, read-out: Mtb H37Rv in J774 Cells (IC50)): 0.21 µg/mL
- IC50 ([9]; read-out: Mtb CDC1551 in J774 Cells (IC50)): 0.12 µg/mL
- IC50 [10]: 1 µg/mL
